Results as given in patent EP0876144B1, “THERAPEUTIC ANTI-ASTHMA AGENTS CONTAINING EBSELEN” (A. Nattermann & Cie. GmbH, priority 1996, dated 1997).
Entries after “also recorded” stand apart in the source; their conditions may differ.

Legend:
[1] = test system: Meerschweinchen, die ein Antigen induziertes Asthma besitzen; experiment: antigen (ovalbumin)-induced asthma in conscious, spontaneously breathing guinea pigs; lung function (sGaw) by body plethysmograph; assay type: in vivo, Hartley Meerschweinchen; conditions: for Bereiche der Unterdrückung der unmittelbaren asthmatischen Reaktionen: comparison of Ebselen group (5 mg/kg i.p.) with Dexamethason group (1 mg/kg i.p., 4 days)
Procedure: Die Wirksamkeiten von Ebselen wurden unter Verwendung von Meerschweinchen, die ein Antigen induziertes Asthma besitzen, durch Überprüfung der Lungenfunktionen unter Bewußtsein und spontaner Atmung getestet.
Jedes der weiblichen Hartley Meerschweinchen (SLC) (4 Wochen alt, Körpergewicht etwa 250 bis 300 g) wurden vorbehandelt mit Cyclophosmid (2 mg/kg). Nach zwei Tagen wurden intraperitoneal Ovalbumin (OA, 1 mg) und Aluminiumgel (1 g) injiziert. Drei Wochen später wurden wiederum OA (0,1 mg) und Aluminiumgel (1 g) intraperitoneal injiziert. Die so behandelten Meerschweinchen wurden als sensibilisierte Tiere benutzt. Zu diesem Testzeitpunkt waren die Meerschweinchen elf Wochen alt und hatten ein Körpergewicht von 450 bis 580 g.
Körper-Pressmograph, Drucktyp • Pulmotacograph (TP-601G, Nippon Kodensha) • Differentialmeßwandler (T-601, Nippon Kodensha) • Gasflußwiderstandsrohr (Lilly type, Nippon Kodensha) • Oszilloskop (DS-9121, Iwasaki Tsushinki) • Computer (Macintosh Centris 660 AV, Apple) • Software (zur Analyse der Atmung basierend auf LabView für Macintosh 3.01) • Zerstäuber (NE-U10, Tateishi Denki)
Dexamethason (1 mg/kg) wurde in 100 % DMSO (1 ml) gelöst. Diese Lösung wurde während vier aufeinander folgende Tage intraperitoneal injiziert. Die letzte intraperitoneale Injektion wurde 24 Stunden vor der Induzierung der Antigene durchgeführt.
Gruppe der mit Ebselen vorbehandelten Meerschweinchen Ebselen (5 mg/kg) wurde in 100 % DMSO (1 ml) gelöst. Diese Lösung wurde intraperitoneal 30 Minuten vor der Induzierung der Antigene injiziert.
100 % DMSO (1 ml) wurde intraperitoneal 30 Minuten vor der Induzierung der Antigene injiziert.
OA (40 mg) wurde in einer physiologischen Salzlösung (4 mg/ml) gelöst. Diese Lösung wurde 2 Minuten lang unter Verwendung eines Ultraschallzerstäubers inhaliert.
In Übereinstimmung mit dem Verfahren von Agrawal (Agrawal, K. P.; Specific Airway Conductance in Guinea Pigs: "Normal Values and Histamine Induced Fall", Respiratory Physiology 43:23, 1981) wurde jedes Meerschweinchen auf einem Körper-Pressmograph, Drucktyp, fixiert und die prozentuale Variation des spezifischen Luftweg-Leitwertes (sGaw) wurde gemessen. Der Luftfluß durch die Nase und die Änderung des Innendruckes der Box wurden aufgezeichnet. Die entsprechenden Wellenformen' wurden digital bei 1.024 Hz gesammelt und die Punkte vom Ende des Ausatmens bis zum Beginn des Einatmens wurden als rückläufige Linie aufgezeichnet. Unter Verwendung der Neigung (tan) der rückläufigen Linie wurde der sGaw erhalten. Der sGaw-Wert wurde vor der Induzierung der Antigene gemessen. Nachdem eine physiologische Salzlösung für zwei Minuten inhaliert wurde, wurde der sGaw nochmals gemessen, um sicherzustellen, daß sich keine Daten geändert hatten. […]

[2] = acute toxicity test (LD50) in mice; conditions: mouse, in vivo, Maus
Text: (§1) Darüber hinaus konnte gefunden werden, daß Ebselen sehr sicher ist, wie dies durch die nachfolgenden und in der Tabelle 1 wiedergegebenen LD50-Werte bewiesen wird, wobei diese Werte das Ergebnis eines Toxizitätstests unter Verwendung von Mäusen und Ratten, denen diese Verbindungen oral oder intraperitoneal verabreicht wurden, darstellen. Selbst dann, wenn diese Verbindungen in hohen Dosen verabreicht werden, zeigen sie keine Nebeneffekte, die ernsthafte Probleme verursachen. Tabelle 1

[3] = acute toxicity test (LD50) in rats; conditions: rat, in vivo, Ratte
Text: as §1

Lipoxygenase = conditions: Peter Kuhl et al, Prostaglandins, 31 (1986), 1029-1048; cited from earlier work

SMILES	Bereiche der Unterdrückung der unmittelbaren asthmatischen Reaktionen [1]	LD50 ([2]; ip) [mg/kg]	LD50 ([2]; po) [mg/kg]	LD50 ([3]; ip) [mg/kg]	LD50 ([3]; po) [mg/kg]	Lipoxygenase inhibierende Wirkung (Lipoxygenase)	Unterdrückung der unmittelbaren asthmatischen Reaktionen (sGaw) ([1]; Ebselen 5 mg/kg i.p. 30 min before antigen challenge, compared with control group (DMSO))	Unterdrückung der späten asthmatischen Reaktionen (sGaw) ([1]; Ebselen 5 mg/kg i.p. 30 min before antigen challenge, compared with control group (late reactions at 180 to 420 min in controls))
C[C@@H]1C[C@H]2[C@@H]3CCC4=CC(=O)C=C[C@]4(C)[C@@]3(F)[C@@H](O)C[C@]2(C)[C@@]1(O)C(=O)CO [Dexamethason, reference compound]	überwiegend gleich							
O=c1c2ccccc2[se]n1-c1ccccc1 [Ebselen, 2-Phenyl-1,2-Benzoisoselenazole-3(2H)-one]	überwiegend gleich	740	> 6810	580	> 6810	deutliche Lipoxygenase inhibierende Wirkung	wirkungsvoller unterdrückt	wirkungsvoller unterdrückt; also recorded: erheblich und vollständig unterdrückt
